What was measured:
[1] = system: LPS-induced TNF release in whole blood; experiment: LPS-induced TNF release in whole blood (TNF ELISA); type: cell-based, human; settings: for inhibition of LPS-induced TNF release: 10^-6 M, added directly to whole blood
Description: Immunoreactive TNF was measured using a sandwich ELISA sensitive to ≈0.1 ng/ml TNF. 96-well Immulon IV microtiter plates (Dynatech, Chantilly, Va.) were coated overnight at 4° C. with a monoclonal anti-TNF antibody, TNF 1286 or TNF 1311 (5 μg/ml in TBS, 50 μl per well).
The next morning the ELISA plates were washed three times with TBS with 0.1% (v/v) Tween 20 (Sigma) and blocked for one hour with 1% BSA in TBS. Plates were then washed three times. Plasma samples were diluted 1:5 in 0.1% BSA in TBS, and 50 μl/well pipetted onto the plates and allowed to incubate at 37° C. for one hour. TNF standards were made up by addition of known amounts of recombinant human TNF-α (Upstate Biologicals Inc., Lake Placid, N.Y.) to pooled heparinized normal plasma diluted 1:5 in TBS/BSA. All samples and standards were assayed in duplicate. Plates were washed three times and biotinylated goat anti-TNF antibody or biotinylated monoclonal TNF 1289 (2 μg/ml in 0.1% BSA in TBS, 50 μl/well) was applied and incubated at 37° C. for one hour. Plates were washed three times and streptavidin-alkaline phosphatase (Gibco BRL, Grand Island, N.Y.) (0.025 μg/ml in 0.1% BSA in TBS, 50 μl/well) was applied and incubated at 37° C. for one hour. Following a final four washes, an amplified substrate (Gibco BRL) was applied according to the manufacturer's directions. Plates were read at 492 nm on a microtiter plate reader (Molecular Devices, Palo Alto, Calif.) and values obtained by comparing unknowns to a standard curve using a four-parameter fit. The useful range of this assay was 1-50 ng/ml.
(§1) Blood from healthy volunteers was drawn from the antecubital vein into a heparinized syringe (10 U/ml final; UpJohn, Kalamazoo, Mich.). 24-well culture plates (Costar, Cambridge, Mass.) were coated with 2% (w/v) gelatin (Sigma) and washed three times with Hanks balanced salt solution (HBSS) (Gibco BRL, Gaithersburg, Md.). Only the center eight wells were used to minimize evaporation. Then, 200 μl of blood was pipetted into each well. For comparative experiments involving endothelial cell monolayers, endothelial cells were seeded onto gelatin-coated wells at 3-5×10^5 cells per well 48 hours prior to experimentation. These wells were washed three times with HBSS and heparinized whole blood added as above. In most cases, the same plate would contain wells with and without endothelium for comparison purposes.
(§2) Test reagents suspended in HBSS (8 to 10 μl) were added to the wells immediately after the blood. Plates were incubated at 37° C. in room air/5% CO2 on an orbital shaker at 150 rpm; incubations were four hours unless otherwise noted. The blood then was transferred to microcentrifuge tubes and centrifuged at 500× g for 10 minutes. The resulting platelet-poor plasma was collected and assayed for TNF immediately, as per Example 2 or stored frozen at -70° C. until use.
In most experiments, LPS (from E. coli strain 055:B5, Difco) was used to stimulate TNF release. Other agonists used were zymosan (Sigma, St. Louis, Mo.), muramyl dipeptide (Sigma), recombinant human interferon-γ (Mallinckrodt, Paris, Ky.), and recombinant human interleukin-1β (Collaborative Research, Bedford, Mass.). In some experiments, prostaglandin E2 (PGE2) and the stable prostacyclin analogue, carbacyclin (both from Cayman Chemical, Ann Arbor, Mich.) were added just before the LPS. These were dissolved as a 2.84×10^-3 M stock solution in DMSO and diluted in HBSS; buffer controls with the same concentrations of DMSO were assayed in parallel.

[2] = system: human peripheral blood mononuclear cells (PBMC); experiment: LPS-induced TNF production by isolated peripheral blood mononuclear cells; type: cell-based; settings: PGE2 10^-7 M, n=4, read-out: inhibition of TNF production by isolated PBMCs
Description: To establish whether the inhibitory effect of the endothelium was exerted directly on monocytes or required an intermediary blood cell, human peripheral blood mononuclear cells (PBMC) were prepared from freshly drawn heparinized blood by density-gradient separation on Ficoll-Hypaque (Mono-Poly Resolving Medium, Flow Laboratories, McLean, Va.). Furmaniak-Kazmierczak, et al., "Protein S enhances C4b binding protein interaction with neutrophil," Blood 81:405-411 (1993). Isolated PBMC were washed three times with RPMI 1640 (Mediatech) and resuspended at a concentration of 3-5×10^6 cells/ml. 200 μl aliquots were added to 24-well tissue culture plates, incubated, and assayed as described with whole blood.
Mononuclear cells (4.47±0.94×10^6 /ml) isolated from fresh whole blood released TNF dose-dependently in response to LPS in a manner similar to whole blood.

[3] = system: elastase release in whole blood over porcine aortic segments; experiment: Elastase release in whole blood over pig aorta segments in situ; type: cell-based; settings: ASA pretreatment; intact or denuded segment
Description: (§3) To exclude the possibility that the inhibitory activity of endothelial monolayers was merely an artifact of tissue culture, experiments were performed using intact endothelium in situ in segments of porcine aorta. Normal farm pigs (Spotted Polland) weighing 30-35 kg were euthanized with pentobarbital and the thoracoabdominal aorta removed aseptically. The harvested aorta was rinsed in HBSS containing penicillin 50 IU/ml and streptomycin 50 μg/ml. The aorta was then opened longitudinally along its dorsal surface. The endothelial cell surface was left intact, or denuded mechanically by scraping gently ten times with a metal spatula. The opened aorta was then clamped into a multi-well plexiglass template device, such that the intimal surface of the aorta formed the bottom of the well. The wells were washed with HBSS and blood added and processed exactly as above for 24 well plates.
(§4) As with cultured endothelial cells, TNF release was inhibited when whole blood was incubated in the presence of an intact aortic endothelial surface as compared to an adjacent mechanically denuded segment of vessel (FIG. 21; n=6).

[4] = system: inhibitory activity of porcine aortic endothelium on TNF release in whole blood; experiment: TNF release in whole blood over pig aorta segments in situ; type: cell-based; settings: ASA pretreatment of vessel wall
Description: as §3, §4

[5] = system: elastase release in whole blood over endothelial cell monolayer; experiment: Augmentation of elastase release in whole blood by HUVEC monolayer; type: cell-based, human; settings: whole blood with endotoxin
Description: An assay similar to that described in Example 2 was developed for neutrophil elastase in the same plasma samples (measured as the complex between elastase, and α-1-antitrypsin) using a murine monoclonal antibody (HEL 1076) to elastase as capture and biotinylated murine monoclonal antibody (HAT 1099) as detector. The useful range of this assay was 0.05 to 5 nM complex. These antibodies were obtained by immunizing mice with human neutrophil elastase, human α-1-antitrypsin (Athens Research and Technology, Athens, Ga.) and a complex of both using the method detailed in Example 2. Antibodies were screened for their ability to react with native and complexed antigen. Antibodies were purified from ascites using protein G (Pharmacia, Piscataway, N.J.) affinity chromatography and biotinylated using NHS-LC-biotin (Pierce). In addition to the inhibition of TNF release, calmodulin also augmented elastase release similar to that observed with the endothelial cell monolayer (FIG. 1, authentic calmodulin; FIG. 2, purified endothelial cell calmodulin).
In addition, elastase release in whole blood measured as the complex of elastase with α-1 protease inhibitor (α-1 antitrypsin) was augmented by the presence of an endothelial cell monolayer as shown in FIG. 11 (n=8). […]

cultured HUVECs = experiment: Prostaglandin release from cultured HUVECs (competitive enzyme immunoassay); type: cell-based, human; settings: ASA 10^-4 M for 1 hour
Description: Endothelial cells were treated with inhibitors of enzymes responsible for production of prostaglandins and nitric oxide. In each case, endothelial cells were pretreated by addition of the inhibitor to the culture medium for one hour, before the addition of blood and the TNF-provoking agonist (e.g., LPS) to the wells. Acetylsalicylic acid (ASA, aspirin), (Sigma, St. Louis, Mo.), which is an irreversible inhibitor of the cyclooxygenase enzyme, was removed after the incubation by washing the endothelial cells three times with Hanks balanced salt solution (HBSS) before adding the blood. Indomethacin and N^G -nitro-L-arginine methyl ester (L-NAME; Sigma), which are competitive inhibitors of cyclooxygenase, and nitric oxide synthase, respectively, were added to the HBSS wash solution and again directly to the blood as soon as it had been pipetted into the wells, so that the target enzyme would have no opportunity to escape inhibition. With indomethacin (which has been reported to increase TNF release from macrophages by blocking autocrine production of PGE2), controls were run in which indomethacin was added to the blood in the absence of endothelium.
Therefore, endothelial monolayers were treated with ASA (10^-4 M for 1 hour), an irreversible cyclooxygenase inhibitor. ASA attenuated the inhibitory activity, but by less than 40% of the total inhibition. […]

[6] = system: TNF release in whole blood in response to E. coli; experiment: TNF release in whole blood in response to gentamicin-killed E. coli; type: cell-based, human; settings: data not shown
Description: Whole gentamicin-killed E. coli were examined as another stimulus that probably evokes TNF release by several different pathways; for example, they serve as a phagocytic stimulus and also activate complement components. A single colony of E. coli serotype B7 086a61 (ATCC#33985) on an LB plate was cultured overnight in LB Medium (Difco, Detroit, Mich.). The next morning the cells were washed three times in Hanks balanced salt solution (HBSS) and then resuspended in HBSS to 5.7×10^9 cells per ml. Before addition to blood, bacteria were killed by treatment with gentamicin sulfate (Elkins-Sinn, Cherry Hill, N.J.), 500 μg/ml for one hour. TNF release assays were performed according to procedures given in Example 2.

[7] = system: endothelial inhibition of LPS-induced TNF release in whole blood; experiment: Endothelial (HUVEC) inhibition of LPS-induced TNF release in whole blood, endothelium treated with enzyme inhibitors; type: cell-based, human
Description: as §1, §2
Endothelial cells were treated with inhibitors of enzymes responsible for production of prostaglandins and nitric oxide. […]

[8] = system: TNF release in whole blood; experiment: TNF release in whole blood evoked by other agonists; type: cell-based, human; settings: 0.3 to 1 μg/ml
Description: as §1, §2
In most experiments, LPS (from E. coli strain 055:B5, Difco) was used to stimulate TNF release. […]

`CCCCC[C@H](O)/C=C/[C@@H]1[C@H]2C/C(=C/CCCC(=O)O)C[C@H]2C[C@H]1O` [carbacyclin] was tested, and the “inhibition of LPS-induced TNF release” value ([1]; no endothelial cells) was “almost complete suppression”.
`CCCCC[C@H](O)/C=C/[C@H]1[C@H](O)CC(=O)[C@@H]1C/C=C\CCCC(=O)O` [PGE2, prostaglandin E2] was tested, and the “inhibition of LPS-induced TNF release” value ([1]; no endothelial cells) was “almost complete suppression”, the inhibition at 0.1 µM ([1]; Homo sapiens, PGE2 10^-7 M, n=12, read-out: inhibition of whole-blood TNF production) was 83.6 ± 2.7% and the “potency relative to carbacyclin (inhibition of LPS-induced TNF release)” value ([1]; whole blood, no endothelial cells) was “at least 10 fold”. It also gave an inhibition at 0.1 µM [2] of 63.9 ± 9.6%.
In the case of `CC(=O)Oc1ccccc1C(=O)O` [ASA, Acetylsalicylic acid], the “effect on stimulation of elastase release by aortic segments” value [3] is reported as “did not significantly alter”, the “effect on TNF-inhibitory activity of aortic endothelium” value [4] is reported as “partially reduced” and the “effect on endothelial augmentation of elastase release” value [5] is reported as “not changed”. The “PGE2 release from cultured HUVECs after treatment” value (cultured HUVECs; untreated 0.93 nM, 0.2 nM is limit of detection) was < 0.2 nM and the “prostacyclin release from cultured HUVECs after treatment” value (cultured HUVECs; untreated 4.0 nM) was 0.26 nM.
In the case of Polymyxin B, the “effect on TNF response to LPS” value ([1]; whole blood, data not shown) is reported as “dose-dependently antagonized” and the “effect on TNF response to E. coli” value [6] is reported as “unaffected”.
For `COc1ccc2c(c1)c(CC(=O)O)c(C)n2C(=O)c1ccc(Cl)cc1` [indomethacin, Indomethacin], the “effect on LPS-induced TNF release in the absence of endothelium” value ([1]; indomethacin added to blood, no endothelium) was “marginally higher TNF release”, the “effect on inhibitory effect of endothelial cells in suspension on TNF release” value ([7]; endothelial cells in suspension) was “did not block” and the “effect on endothelial augmentation of elastase release” value [5] was “not changed”.
For `CC(=O)N[C@H]1C(O)O[C@H](CO)[C@@H](O)[C@@H]1O[C@H](C)C(=O)N[C@@H](C)C(=O)N[C@H](CCC(=O)O)C(N)=O` (some centres unmarked) [Muramyl dipeptide, muramyl dipeptide], the “TNF release agonist activity alone” value [8] was “weak agonists”.
In the case of `COC(=O)[C@@H](N)CCCN=C(N)N[N+](=O)[O-]` [L-NAME, N^G -nitro-L-arginine methyl ester], the “effect on endothelial inhibition of TNF release” value ([7]; L-NAME 10^-4 M) is reported as “No reduction”.

Reference: patent US5698518A, “Method for regulating inflammation and tumor growth with calmodulin, calmodulin analogues or calmodulin antagonists” (Oklahoma Medical Research Foundation, priority 1994, dated 1997)
